Among the data in US20170217948A1, “XANTHINE OXIDASE INHIBITOR” (Teijin Pharma Limited, priority 2014, published 2017) are inhibition in vivo and hypouricemic effect values, retold here.

In test [1] the target is XO activity (oxidase-type xanthine oxidoreductase) (Rattus norvegicus, UniProt P22985). Briefly: Prolonged inhibition of tissue and plasma XO activity after oral administration (pterin-based assay). To be noted: 27 h.
Experimental: The tissue includes liver, kidney, adipose tissue, intestine and vessel.
A test compound suspended in a 0.5% methylcellulose solution was administered to 7 to 9 week-old Sprague-Dawley male rats (Japan Charles River Co.) by oral gavage administration using a feeding needle. The blood was collected from the abdominal vein and tissue was collected at 24 or 27 hours after administration. Plasma sample was prepared by centrifugation.
Tissue XO activity, tissue XOR activity and plasma XO activity were measured by the pterin-based assay which utilizes the reaction that pterin is oxidized by each type of xanthine oxidoreductase to produce fluorescent isoxanthopterin. […] Then the homogenates were centrifuged 12,000 rpm for 15 min at 4° C. When measured XO activity, the supernatant of tissue and plasma were respectively co-incubated with 50 μM pterin solution at 37° C. When measured XOR activity, the supernatant of tissue homogenate was co-incubated with 50 μM pterin and 50 μM methylene blue solution at 37° C. As a control, oxidase-type xanthine oxidoreductase (from buttermilk, manufactured by Calbiochem Novabiochem Corp.) was also incubated with pterin solution in the same manner. XO activity and XOR activity of the samples were determined from fluorescence intensity which normalized by the intensity value of control and protein concentration.
The percentage of XO activity inhibition and XOR activity inhibition were determined by the following expression:
Percentage of XO or XOR activity inhibition (%)=(XO or XOR activity of the control animal−XO or XOR activity of the test compound-administered animal)×100/XO or XOR activity of the control animal.
A short description of test [2]: Hypouricemic effect (oxonic acid-induced hyperuricemic beagle dogs). To be noted: hyperuricemic beagle dog, oral, 10 mg/kg, 8 hours after administration. It counts as in vivo. How it is done: Potassium oxonate (50 mg/kg) was subcutaneously administrated before and 4 hours after compound administration. After the blood was collected from the cephalic vein at 8 hours after administration, the plasma was separated. The level of uric acid in the plasma sample was measured by LC-MS/MS method and the percentage of hypouricemic effect was determined by the following expression:
Percentage of hypouricemic effect (%)=(Level of uric acid of the control animal−Level of uric acid of the test compound-administered animal)×100/Level of uric acid of the control animal.

Setting [3] is: read-out: % inhibition of XO activity (vs. vehicle), Kidney, 1 mg/kg, 27 hours after administration.
[4] abbreviates: read-out: % inhibition of XO activity (vs. vehicle), Kidney, 10 mg/kg, 27 hours after administration.
Where [5] appears, read: read-out: % inhibition of XO activity (vs. vehicle), Liver, 1 mg/kg, 27 hours after administration.
Setting [6] is: read-out: % inhibition of XO activity (vs. vehicle), Liver, 10 mg/kg, 27 hours after administration.
[7] abbreviates: read-out: % inhibition of XO activity (vs. vehicle), Plasma, 1 mg/kg, 27 hours after administration.
Where [8] appears, read: read-out: % inhibition of XO activity (vs. vehicle), Plasma, 10 mg/kg, 27 hours after administration.

The structures appear in SMILES notation. Read-outs that look alike come from different tables or passages of the source.

XO activity (oxidase-type xanthine oxidoreductase), sequence (P22985 whole entry): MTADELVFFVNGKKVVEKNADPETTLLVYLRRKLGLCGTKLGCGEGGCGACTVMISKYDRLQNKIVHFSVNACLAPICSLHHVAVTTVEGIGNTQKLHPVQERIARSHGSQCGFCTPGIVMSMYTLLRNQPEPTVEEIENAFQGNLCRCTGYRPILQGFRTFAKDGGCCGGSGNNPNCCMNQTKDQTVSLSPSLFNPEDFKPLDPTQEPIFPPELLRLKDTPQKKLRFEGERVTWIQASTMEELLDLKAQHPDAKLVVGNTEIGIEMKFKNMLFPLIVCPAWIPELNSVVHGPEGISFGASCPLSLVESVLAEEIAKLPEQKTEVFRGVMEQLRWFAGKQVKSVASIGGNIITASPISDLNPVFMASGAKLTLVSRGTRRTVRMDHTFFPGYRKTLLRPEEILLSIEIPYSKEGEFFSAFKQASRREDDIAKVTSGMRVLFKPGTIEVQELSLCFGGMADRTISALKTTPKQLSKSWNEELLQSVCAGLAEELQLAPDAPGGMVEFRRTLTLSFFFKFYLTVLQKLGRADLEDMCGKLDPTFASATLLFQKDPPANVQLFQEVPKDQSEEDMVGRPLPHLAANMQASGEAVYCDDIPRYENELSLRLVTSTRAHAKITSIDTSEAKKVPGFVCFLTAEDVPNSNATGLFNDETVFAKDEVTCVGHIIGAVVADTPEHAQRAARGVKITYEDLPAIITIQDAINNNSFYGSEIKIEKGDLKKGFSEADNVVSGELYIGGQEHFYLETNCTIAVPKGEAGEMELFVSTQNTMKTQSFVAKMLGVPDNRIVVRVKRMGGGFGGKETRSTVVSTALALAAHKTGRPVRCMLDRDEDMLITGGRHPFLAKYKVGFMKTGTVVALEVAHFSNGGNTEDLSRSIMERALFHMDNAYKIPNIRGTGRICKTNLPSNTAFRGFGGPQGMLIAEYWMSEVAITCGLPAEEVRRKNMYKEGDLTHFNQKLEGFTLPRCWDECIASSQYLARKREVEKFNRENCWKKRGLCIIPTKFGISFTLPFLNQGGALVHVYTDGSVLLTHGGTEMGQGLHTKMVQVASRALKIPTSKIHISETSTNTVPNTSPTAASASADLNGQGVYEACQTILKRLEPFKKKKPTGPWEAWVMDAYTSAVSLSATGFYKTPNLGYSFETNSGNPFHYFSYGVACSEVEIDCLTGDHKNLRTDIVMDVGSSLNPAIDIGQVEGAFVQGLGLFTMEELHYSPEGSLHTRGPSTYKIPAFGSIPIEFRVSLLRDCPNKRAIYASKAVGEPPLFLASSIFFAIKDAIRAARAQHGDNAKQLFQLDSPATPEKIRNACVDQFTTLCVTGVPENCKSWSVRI

Consider `Cc1nc(-c2ccc(OCC(C)C)c(-n3ccnn3)c2)sc1C(=O)O` [Compound 17, 4-methyl-2-[4-(2-methylpropoxy)-3-(1H-1,2,3-triazol-1-yl)phenyl]-1,3-thiazole-5-carboxylic acid], for which the inhibition in vivo at 1 mg/kg in test [1] (setting [3]) was no less than 60%; in test [1] (setting [5]) it was no less than 80%; in test [1] (setting [7]), no less than 25%. The inhibition in vivo at 10 mg/kg in test [1] (setting [4]) is no less than 70%; in test [1] (setting [6]) it was no less than 80%; in test [1] (setting [8]) it was no less than 40%.
For the compound `Cc1nc(-c2ccc(OCC(C)C)c(-n3cnnn3)c2)sc1C(=O)O` [Compound 25, 4-methyl-2-[4-(2-methylpropoxy)-3-(1H-1,2,3,4-tetrazol-1-yl)phenyl]-1,3-thiazole-5-carboxylic acid], the hypouricemic effect result in test [2] is listed as “showed a hypouricemic effect”.
Turning to `Cc1nc(-c2ccc(OCC(C)(C)C)c(-n3cnnn3)c2)sc1C(=O)O` [Compound 26, 2-[4-(2,2-dimethylpropoxy)-3-(1H-1,2,3,4-tetrazol-1-yl)phenyl]-4-methyl-1,3-thiazole-5-carboxylic acid], the inhibition in vivo at 1 mg/kg in test [1] (setting [3]) is no less than 60%; in test [1] (setting [5]), no less than 80%; in test [1] (setting [7]), no less than 25%. The inhibition in vivo at 10 mg/kg in test [1] (setting [4]) was no less than 70%; in test [1] (setting [6]), no less than 80%; in test [1] (setting [8]), no less than 40%.
